What was measured:
[1] = test system: HO-1, CYP2B6, PGC-1a; test: Gene expression in primary human hepatocytes after 48 h+2 h; assay type: cell-based
Description: FIG. 13b: Gene Expression results from Primary Hepatocytes after 48 h+2 h of the DGA Activation vs. 0-control. […] Combined test for PGC-1a yielded P-value of some 10%. Primary human hepatocytes were purchased from Celsis In Vitro Technologies (1450 South Rolling Road Baltimore, Md. 21227, USA). Primary hepatocytes were received from three different post mortem human donators. […] This is also the case for DOO.
In this experimental model the cells in the 0-Control and in the two DGA Activation groups were normally and identically incubated before DGA Activation. Incubation the medium is changed every 24 hours. When the 48 hour+2 hour DGA Activation started, the only difference was the addition of either 1.4 μM or 14 μM of DGA to the used medium. The D-glyceric acid calcium salt was carefully mixed in to medium before the administration. Thus, it was separated from the calcium salt.

[2] = test system: CRP; test: Blood CRP in discontinuous MPTP/PD disease model; assay type: in vivo, mice
Description: In this Example, CRP results from 3 separate preclinical tests are presented and analyzed. First 4-day CRP test was conducted with 8 healthy mice using individuals as their own controls. Second 7-day CRP test was conducted in discontinuous disease model. And third also 7-day CRP test was conducted in continuous disease model. CRP present in mouse serum samples were analyzed using mouse CRP ELISA kit (GWB-3B960E, Genway Biotech Inc.). All blood samples were collected at the same time of the day.
In two other CRP tests, the effect of the DGA Activation in two disease models, continuous vs. discontinuous was analyzed. In FIG. 4b, results from discontinuous MPTP/PD disease model, and in FIG. 4c, results from continuous IPA/Dry Eye disease model. Logarithmic change of blood CRP during the 7-day disease follow up period of each mouse in all groups was calculated and the averages are presented in FIGS. 4b and 4c. (In both disease models, there was a 4-day priming with 50% DGA dose before activating the disease model and CRP test.)
Brief description of the disease models: 1) continuous IPA -model (see Example 1a) and 2) discontinuous MPTP/PD -model. MPTP (1-methyl-4-phenyl-1,2,3,6-tetrahydropyridine) is a neurotoxin precursor to MPP+, which causes symptoms of Parkinson's disease (PD). […] Diet consumption per cage is monitored carefully before and during the study follow-up period. […]

[3] = test system: eimeria acervulina, eimeria maxima and eimeria tenella; test: Coccidial challenge in broiler chickens, Example 1g; assay type: in vivo; conditions: for overall lesion score, difference to 0-control: day 21
[4] = 1.4 μM, combined data, P-value approximately 1%

With O=C(O)[C@H](O)CO [DGA, D-glyceric acid] the “CYP2B6 expression vs control” value [1, 4] was “statistically significantly different from control”, the “HO-1 expression vs control” value [1, 4] was “statistically significantly different from control” and the “PGC-1a expression vs control” value ([1]; combined test P-value of some 10%) was “activated compared to control”. The “increase of HO-1 expression” value ([1]; primary human hepatocytes in vitro) was 50-80%, the “survival and health parameters” value ([2]; 4+7-day administration) was “improved survival and health parameters” and the “blood CRP change vs 0-control” value ([2]; 7-day follow up after 4-day priming, p-value=0.015, pairwise p-value=0005) was “declined statistically significantly”. For the same compound, the “mortality after 14 days” value ([3]; DGA1 group) was “no mortality”, the “oocyst count at 7 and 11 days post infection” value ([3]; DGA1 group) was “decreased in DGA1 group already in 7 days to similar levels than in P-control” and the “oocyst count at 5 days (acute phase)” value ([3]; DGA1 group) was “less than in 0-control”. The “feed conversion rate (FCR) vs 0-control” value ([3]; DGA1 group, appr. 9 mg/kg/day DGAcs in feed, 14-35, 21-35, 28-35 days, p-values 0.04 to 0.05) was “statistically significantly better”, the “overall lesion score, difference to 0-control” value ([3]; DGA1 group) was “statistically significant only in P-control” and the “body weight gain (14-35 days) vs 0-control” value ([3]; DGA1 group, p-value 0.002) was “statistically very significantly higher”. For the same compound, the “difference in oocyst counts after the infection vs 0-control” value ([3]; DGA1 group, pairwise t-test p 0.04) was “statistically significant”, the “number of oocyst in 7 and 11 day measurements” value ([3]; DGA½ group) was “declined to almost similar levels than in P-control” and the “feed conversion rate (FCR) vs 0-control” value ([3]; DGA½ group, appr. 4.5 mg/kg/day) was “better compared to 0-control”. For the same compound, the “overall lesion score, difference to 0-control” value ([3]; DGA½ group) was “statistically significant only in P-control”, the “mortality after 14 days” value ([3]; DGA½ group, one bird clearly ill at slaughtering) was “no mortality” and the “difference in oocyst counts after the infection vs 0-control” value ([3]; DGA½ group, pairwise t-test p 0.03) was “statistically significant”.

Reference: patent US20190008810A1, “METHOD FOR PREVENTION, TREATMENT AND ALLEVIATION OF INFECTIOUS DISEASES AND DISORDERS” (REPLICON HEALTH OY, priority 2016, published 2019)
